Common to all, as to test: Kinase profiling
Holding throughout (type): biochemical

The target of one assay is T1, DYRK4 (Homo sapiens, UniProt Q9NR20).
T1 construct: purchased ProQinase (Freiburg, Germany)
T1 sequence (Q9NR20 1-520): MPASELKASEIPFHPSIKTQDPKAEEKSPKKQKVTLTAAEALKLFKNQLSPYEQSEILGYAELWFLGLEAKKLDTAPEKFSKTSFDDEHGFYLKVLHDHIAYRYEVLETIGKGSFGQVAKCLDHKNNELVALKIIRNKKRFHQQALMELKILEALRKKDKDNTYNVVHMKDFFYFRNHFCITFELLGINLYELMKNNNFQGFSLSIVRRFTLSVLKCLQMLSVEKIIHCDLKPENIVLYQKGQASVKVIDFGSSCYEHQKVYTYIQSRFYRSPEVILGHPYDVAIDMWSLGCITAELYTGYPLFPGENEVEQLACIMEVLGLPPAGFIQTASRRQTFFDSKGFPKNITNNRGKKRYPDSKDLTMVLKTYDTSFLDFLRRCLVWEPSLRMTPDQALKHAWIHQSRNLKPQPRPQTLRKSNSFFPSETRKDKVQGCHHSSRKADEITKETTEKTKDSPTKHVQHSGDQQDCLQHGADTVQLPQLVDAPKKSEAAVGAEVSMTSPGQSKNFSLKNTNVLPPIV
As to the method: (§1) The analysis was performed by ProQinase (Freiburg, Germany).

Another assay deals with T2, EPHA3 (Homo sapiens, UniProt P29320).
T2 construct: purchased ProQinase (Freiburg, Germany)
T2 sequence (P29320 21-983): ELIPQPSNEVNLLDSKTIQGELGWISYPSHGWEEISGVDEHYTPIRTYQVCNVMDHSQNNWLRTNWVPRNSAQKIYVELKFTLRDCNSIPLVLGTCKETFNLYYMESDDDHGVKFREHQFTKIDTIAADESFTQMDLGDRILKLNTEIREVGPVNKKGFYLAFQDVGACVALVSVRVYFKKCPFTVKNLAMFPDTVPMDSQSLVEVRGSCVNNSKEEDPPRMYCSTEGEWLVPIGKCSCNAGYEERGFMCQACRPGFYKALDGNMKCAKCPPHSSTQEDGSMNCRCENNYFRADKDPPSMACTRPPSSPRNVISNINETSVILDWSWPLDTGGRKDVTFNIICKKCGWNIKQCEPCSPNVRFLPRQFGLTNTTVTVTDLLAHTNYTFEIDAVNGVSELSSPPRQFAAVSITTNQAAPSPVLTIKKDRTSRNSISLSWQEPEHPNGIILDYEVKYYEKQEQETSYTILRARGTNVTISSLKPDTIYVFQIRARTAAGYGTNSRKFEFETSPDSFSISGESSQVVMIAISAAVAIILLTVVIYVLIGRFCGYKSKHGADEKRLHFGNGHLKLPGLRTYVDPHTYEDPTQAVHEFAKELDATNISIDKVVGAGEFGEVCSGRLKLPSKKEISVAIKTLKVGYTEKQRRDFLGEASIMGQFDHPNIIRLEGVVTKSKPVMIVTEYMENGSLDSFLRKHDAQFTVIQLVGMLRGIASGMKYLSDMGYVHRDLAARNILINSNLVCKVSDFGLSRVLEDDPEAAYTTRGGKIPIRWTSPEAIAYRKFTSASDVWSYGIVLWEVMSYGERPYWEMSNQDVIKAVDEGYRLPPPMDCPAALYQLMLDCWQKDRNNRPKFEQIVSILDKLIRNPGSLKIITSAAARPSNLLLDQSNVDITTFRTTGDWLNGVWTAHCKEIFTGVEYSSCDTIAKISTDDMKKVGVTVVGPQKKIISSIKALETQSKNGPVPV
Here is the method:
as §1

The target of another assay is T3, MAP4K2 (Homo sapiens, UniProt Q12851).
T3 construct: purchased ProQinase (Freiburg, Germany)
T3 sequence (Q12851 1-820): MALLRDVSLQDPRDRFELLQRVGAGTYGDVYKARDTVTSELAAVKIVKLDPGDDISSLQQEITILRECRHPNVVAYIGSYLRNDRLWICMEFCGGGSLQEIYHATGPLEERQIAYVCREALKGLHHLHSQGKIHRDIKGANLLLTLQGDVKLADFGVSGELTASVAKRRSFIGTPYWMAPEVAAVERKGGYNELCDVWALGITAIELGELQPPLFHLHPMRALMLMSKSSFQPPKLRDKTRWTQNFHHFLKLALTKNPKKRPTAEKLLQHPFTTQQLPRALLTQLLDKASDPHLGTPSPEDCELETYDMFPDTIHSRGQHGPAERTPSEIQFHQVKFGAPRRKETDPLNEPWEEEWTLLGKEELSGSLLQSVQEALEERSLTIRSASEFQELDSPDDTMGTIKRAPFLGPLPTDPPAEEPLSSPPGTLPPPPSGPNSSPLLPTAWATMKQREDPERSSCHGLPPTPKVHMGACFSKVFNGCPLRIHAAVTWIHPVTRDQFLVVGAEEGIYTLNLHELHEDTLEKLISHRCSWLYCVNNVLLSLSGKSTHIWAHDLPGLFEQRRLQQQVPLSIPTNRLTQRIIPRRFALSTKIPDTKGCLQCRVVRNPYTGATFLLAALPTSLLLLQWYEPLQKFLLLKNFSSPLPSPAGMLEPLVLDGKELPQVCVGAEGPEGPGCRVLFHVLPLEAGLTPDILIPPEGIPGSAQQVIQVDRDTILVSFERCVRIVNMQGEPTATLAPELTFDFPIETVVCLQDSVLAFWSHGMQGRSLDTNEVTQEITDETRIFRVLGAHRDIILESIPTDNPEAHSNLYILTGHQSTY
As to the method:
as §1

For another assay, the target named is T4, PKN3 (Homo sapiens, UniProt Q6P5Z2).
T4 construct: purchased ProQinase (Freiburg, Germany)
T4 sequence (Q6P5Z2 whole entry): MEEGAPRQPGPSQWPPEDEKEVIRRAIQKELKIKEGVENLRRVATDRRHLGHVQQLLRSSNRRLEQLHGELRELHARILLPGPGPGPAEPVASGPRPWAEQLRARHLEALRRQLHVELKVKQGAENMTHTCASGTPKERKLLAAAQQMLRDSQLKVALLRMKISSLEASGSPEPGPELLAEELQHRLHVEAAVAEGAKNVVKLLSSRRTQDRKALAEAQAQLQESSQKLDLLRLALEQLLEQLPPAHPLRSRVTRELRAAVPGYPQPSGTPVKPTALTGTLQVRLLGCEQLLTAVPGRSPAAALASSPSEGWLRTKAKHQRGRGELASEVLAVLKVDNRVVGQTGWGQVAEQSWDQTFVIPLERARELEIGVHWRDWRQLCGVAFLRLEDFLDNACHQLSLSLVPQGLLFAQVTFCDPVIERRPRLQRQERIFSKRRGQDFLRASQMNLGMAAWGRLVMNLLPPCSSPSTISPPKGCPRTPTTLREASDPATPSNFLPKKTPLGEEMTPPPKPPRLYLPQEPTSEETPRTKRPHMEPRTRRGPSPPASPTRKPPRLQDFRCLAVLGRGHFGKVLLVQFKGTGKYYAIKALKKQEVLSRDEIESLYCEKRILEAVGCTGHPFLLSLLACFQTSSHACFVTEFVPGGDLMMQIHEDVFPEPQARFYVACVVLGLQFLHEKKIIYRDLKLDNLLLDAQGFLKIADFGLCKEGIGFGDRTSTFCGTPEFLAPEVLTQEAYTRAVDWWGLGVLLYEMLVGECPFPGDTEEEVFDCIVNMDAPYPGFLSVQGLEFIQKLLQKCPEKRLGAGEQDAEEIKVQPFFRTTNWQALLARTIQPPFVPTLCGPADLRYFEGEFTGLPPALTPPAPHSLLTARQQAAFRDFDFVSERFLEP
As to the method: as §1

The next assay has as its target T5, RON (Homo sapiens, UniProt Q04912).
T5 construct: purchased ProQinase (Freiburg, Germany)
As to the method:
as §1

The target in the next assay is T6, TLK2 (Homo sapiens, UniProt Q86UE8).
T6 construct: purchased ProQinase (Freiburg, Germany)
T6 sequence (Q86UE8 whole entry): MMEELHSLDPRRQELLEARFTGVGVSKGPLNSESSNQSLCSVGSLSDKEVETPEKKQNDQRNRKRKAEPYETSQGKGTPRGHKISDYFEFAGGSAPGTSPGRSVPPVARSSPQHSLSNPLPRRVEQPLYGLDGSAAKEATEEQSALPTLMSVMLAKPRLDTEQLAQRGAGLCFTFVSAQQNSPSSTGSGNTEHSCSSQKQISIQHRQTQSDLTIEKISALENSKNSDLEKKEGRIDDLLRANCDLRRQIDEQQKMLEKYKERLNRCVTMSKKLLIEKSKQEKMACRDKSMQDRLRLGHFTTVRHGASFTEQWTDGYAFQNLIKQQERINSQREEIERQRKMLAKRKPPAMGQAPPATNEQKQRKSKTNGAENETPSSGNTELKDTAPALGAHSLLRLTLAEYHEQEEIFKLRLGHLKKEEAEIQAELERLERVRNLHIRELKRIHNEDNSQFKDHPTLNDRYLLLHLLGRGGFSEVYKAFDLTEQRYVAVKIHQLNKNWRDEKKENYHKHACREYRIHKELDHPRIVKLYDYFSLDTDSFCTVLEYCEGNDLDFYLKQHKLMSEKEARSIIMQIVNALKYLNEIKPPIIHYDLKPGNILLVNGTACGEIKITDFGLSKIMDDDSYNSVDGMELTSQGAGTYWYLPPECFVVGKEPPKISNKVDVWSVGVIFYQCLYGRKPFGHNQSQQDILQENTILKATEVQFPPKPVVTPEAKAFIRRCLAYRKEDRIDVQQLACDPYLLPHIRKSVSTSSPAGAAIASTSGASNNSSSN
As to the method: as §1

SMILES strings stand for the structures.

T5 sequence (Q04912 25-1400): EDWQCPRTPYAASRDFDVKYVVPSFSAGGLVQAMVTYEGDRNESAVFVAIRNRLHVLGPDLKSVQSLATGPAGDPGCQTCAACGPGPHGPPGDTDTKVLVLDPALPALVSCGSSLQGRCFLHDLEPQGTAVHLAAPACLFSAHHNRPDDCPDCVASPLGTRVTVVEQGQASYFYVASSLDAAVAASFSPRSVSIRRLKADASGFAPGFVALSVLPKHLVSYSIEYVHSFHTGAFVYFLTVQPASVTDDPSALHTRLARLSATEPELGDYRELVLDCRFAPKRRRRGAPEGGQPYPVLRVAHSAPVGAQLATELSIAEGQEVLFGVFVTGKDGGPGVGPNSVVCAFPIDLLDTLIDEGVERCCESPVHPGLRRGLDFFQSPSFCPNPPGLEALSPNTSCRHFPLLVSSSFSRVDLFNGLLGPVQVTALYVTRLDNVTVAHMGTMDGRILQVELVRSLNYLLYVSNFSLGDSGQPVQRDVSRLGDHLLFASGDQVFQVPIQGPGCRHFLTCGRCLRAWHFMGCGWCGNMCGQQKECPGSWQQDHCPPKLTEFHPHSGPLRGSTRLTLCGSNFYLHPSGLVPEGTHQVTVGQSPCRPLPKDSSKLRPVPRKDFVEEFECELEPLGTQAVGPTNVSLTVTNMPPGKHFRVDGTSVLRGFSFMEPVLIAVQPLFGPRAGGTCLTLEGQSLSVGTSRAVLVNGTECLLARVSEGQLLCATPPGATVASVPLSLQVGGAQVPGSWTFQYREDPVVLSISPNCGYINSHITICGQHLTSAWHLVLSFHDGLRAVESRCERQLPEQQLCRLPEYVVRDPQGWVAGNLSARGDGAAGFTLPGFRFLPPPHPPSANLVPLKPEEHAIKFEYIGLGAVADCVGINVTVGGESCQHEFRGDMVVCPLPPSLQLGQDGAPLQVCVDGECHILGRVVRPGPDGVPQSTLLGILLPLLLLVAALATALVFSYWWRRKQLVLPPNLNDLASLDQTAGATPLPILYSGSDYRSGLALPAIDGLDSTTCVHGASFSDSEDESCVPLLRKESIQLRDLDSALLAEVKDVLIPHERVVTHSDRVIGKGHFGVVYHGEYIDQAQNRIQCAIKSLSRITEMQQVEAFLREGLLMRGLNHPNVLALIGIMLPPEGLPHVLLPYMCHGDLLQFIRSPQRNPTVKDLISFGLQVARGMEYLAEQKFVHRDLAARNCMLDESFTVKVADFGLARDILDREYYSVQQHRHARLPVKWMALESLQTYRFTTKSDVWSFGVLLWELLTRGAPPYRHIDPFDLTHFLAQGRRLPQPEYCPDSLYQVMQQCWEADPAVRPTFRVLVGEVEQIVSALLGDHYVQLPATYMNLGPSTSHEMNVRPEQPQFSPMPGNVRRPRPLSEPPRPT

Consider `O=C(Nc1ccc(F)c(Nc2ccc3c(c2)CCCCC3=O)c1)c1cccc(F)c1` [Compound 109], for which the Residual activity on DYRK4 (1.0E-05 M) is on record as 87 % of control; on DYRK4 (1.0E-06 M) it was 89 % of control; on EPHA3 (1.0E-05 M), 94 % of control; on EPHA3 (1.0E-06 M) it was 92 % of control; at MAP4K2 (1.0E-05 M), 93 % of control; at MAP4K2 (1.0E-06 M), 95 % of control. The Residual activity on PKN3 (1.0E-05 M) is given as 92 % of control; on PKN3 (1.0E-06 M), 91 % of control; on RON (1.0E-05 M), 83 % of control; at RON (1.0E-06 M) it was 89 % of control; on TLK2 (1.0E-05 M), 207 % of control; on TLK2 (1.0E-06 M), 120 % of control.
Take `O=C(Cc1ccccc1)Nc1ccc(F)c(Nc2ccc3c(c2)CCCCC3=O)c1` [Compound 100]: the Residual activity on DYRK4 (1.0E-05 M) was 94 % of control; on DYRK4 (1.0E-06 M) it was 98 % of control; at EPHA3 (1.0E-05 M) it was 86 % of control; at EPHA3 (1.0E-06 M), 96 % of control; on MAP4K2 (1.0E-05 M), 71 % of control; on MAP4K2 (1.0E-06 M) it was 94 % of control. The Residual activity at PKN3 (1.0E-05 M) is 101 % of control; on PKN3 (1.0E-06 M) it was 104 % of control; on RON (1.0E-05 M), 77 % of control; on RON (1.0E-06 M) it was 104 % of control; on TLK2 (1.0E-05 M) it was 162 % of control; on TLK2 (1.0E-06 M), 135 % of control.
